Experimental data as given in PubChem BioAssay (NCI).
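Compound exposure: 48 hours, 5 concentrations, 96-well plates. The concentration for full growth arrest is given as TGI.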

These compounds were tested on OVCAR-4 ovarian (assay: inhibition of tumour cell growth, NCI panel, 48 h).

`CC(C)C1=CC23CCC4C(C)(C(=O)O)CCCC4(C)C2CC1C1C(=O)N(c2ccc(Cc4ccc(N5C(=O)C6C7CC8C9(C)CCCC(C)(C(=O)O)C9CCC8(C=C7C(C)C)C6C5=O)cc4)cc2)C(=O)C13` (configuration not stated) and `COC(=O)c1c(O)ccc2c1c1c(n2Cc2cc(OC)cc(OC)c2)C(=O)c2ccccc2C1` are within 1.5-fold of each other in TGI: 33.2 µM for the first, 44.8 µM for the second.

`O=C(Nc1ccccc1)c1cc(S(=O)(=O)NC2=NC(c3ccccc3)c3cc(Cl)ccc3N2)c(SSc2cc(Cl)c(C(=O)Nc3ccccc3)cc2S(=O)(=O)NC2=NC(c3ccccc3)c3cc(Cl)ccc3N2)cc1Cl` (configuration not stated) and `C=CCc1cccc2cc(C(=O)NCc3ccccc3)c(=N)oc12` cannot be ordered by TGI: over 100 µM for the first, over 100 µM for the second.

`CCOC(=O)Nc1[nH]cc(-c2ccccc2)c1C#N` and `Cc1c(C)c2c(c(N)c1C#N)C(=O)N(NC(=O)c1ccccc1)C2=O` cannot be ordered by TGI: over 100 µM for the first, over 100 µM for the second.

`COc1ccc(C2SC(N)=Nc3c2c(C)nn3C(=O)c2ccncc2)cc1OC` (configuration not stated) and `COC(=O)c1ccc(/C=C/c2cc(O)ccc2O)cc1` cannot be ordered by TGI: over 10 µM for the first, 15.9 µM for the second.

`O=C(N/N=C(\c1ccccc1)c1ccccn1)NC1CCCCC1` and `NC(N)=NCCN1CC2CCC(CC2)C1` cannot be ordered by TGI: over 100 µM for the first, over 100 µM for the second.

What follows are compounds tested on NCI-H460 lung (assay: inhibition of tumour cell growth, NCI panel, 48 h).

`O=C1C=CC(=O)c2c1ccc1c3ccccc3n(CCCCCn3c4ccccc4c4ccc5c(c43)C(=O)C=CC5=O)c21` and `CC(=O)N(C(C)=O)c1ncc(-n2nc(-c3ccccc3)cc2-c2ccccc2)c(-c2ccccc2)n1` cannot be ordered by TGI: over 100 µM for the first, over 10 µM for the second.

`CC(=O)Nc1sc(Br)cc1S(=O)(=O)c1ccc(Cl)cc1` and `COc1cccc(C(=O)Oc2ccc(OS(=O)(=O)c3ccc(C)cc3)cc2)c1C#N` cannot be ordered by TGI: over 100 µM for the first, over 100 µM for the second.

Compared with `O=C1Sc2cc3ccccc3cc2C(=O)Sc2ccc(Br)cc21`, `COC(=O)c1c(O)ccc2c1c1c(n2Cc2cc(OC)cc(OC)c2)C(=O)c2ccccc2C1` is higher in TGI: 24.2 µM for the first, over 100 µM for the second.

Compared with `O=C(/C=C/c1ccccc1)Oc1cccc(O)c1`, `COC(=O)c1ccc(/C=C/c2cc(O)ccc2O)cc1` is lower in TGI: over 100 µM for the first, 25.9 µM for the second.

`O=C1c2ccccc2C(=O)c2c(NCC(O)CO)ccc(NCC(O)CO)c21` (configuration not stated) and `Cc1c(C)c2c(c(N)c1C#N)C(=O)N(NC(=O)c1ccccc1)C2=O` cannot be ordered by TGI: over 100 µM for the first, over 100 µM for the second.

`CC1(C)/C(=N\NC(N)=O)C2CCC1C2` (configuration not stated) and `NC(N)=NCCN1CC2CCC(CC2)C1` cannot be ordered by TGI: over 100 µM for the first, over 100 µM for the second.

`C/C=C/C(CC(O)(C(F)(F)F)C(F)(F)F)=N/NC(N)=S` and `O=C(N/N=C(\c1ccccc1)c1ccccn1)NC1CCCCC1` cannot be ordered by TGI: over 10 µM for the first, over 100 µM for the second.

`O=C1/C(=C/c2ccc(Br)s2)NC(=S)N1c1ccccc1` and `C=CCc1cccc2cc(C(=O)NCc3ccccc3)c(=N)oc12` cannot be ordered by TGI: over 100 µM for the first, over 100 µM for the second.

First: Fc1ccc2c(c1)nc1n2C(c2c(Cl)cccc2Cl)SC1 (configuration not stated)
Second: O=C1Nc2cccc(Cl)c2/C1=C\c1c(Cl)nc2n1CCS2
The TGI of the first is lower: 20.8 µM for the first, over 100 µM for the second.

First: O=C(Nc1ccccc1)c1cc(S(=O)(=O)NC2=NC(c3ccccc3)c3cc(Cl)ccc3N2)c(SSc2cc(Cl)c(C(=O)Nc3ccccc3)cc2S(=O)(=O)NC2=NC(c3ccccc3)c3cc(Cl)ccc3N2)cc1Cl (configuration not stated)
Second: CC(=O)OC(OC(C)=O)c1ccc2ccc3cccc4ccc1c2c34
The TGI of the first is higher: over 100 µM for the first, 39.6 µM for the second.

`COc1ccc(C2SC(N)=Nc3c2c(C)nn3C(=O)c2ccncc2)cc1OC` (configuration not stated) and `COc1cc(Nc2nc3ccccc3nc2C(=O)O)cc(OC)c1OC` cannot be ordered by TGI: over 10 µM for the first, over 100 µM for the second.

The compounds below were run on HCT-116 colon (assay: inhibition of tumour cell growth, NCI panel, 48 h).

`O=C1C=CC(=O)c2c1ccc1c3ccccc3n(CCCCCn3c4ccccc4c4ccc5c(c43)C(=O)C=CC5=O)c21` and `CC(=O)N(C(C)=O)c1ncc(-n2nc(-c3ccccc3)cc2-c2ccccc2)c(-c2ccccc2)n1` cannot be ordered by TGI: 25.7 µM for the first, over 10 µM for the second.

`Cc1ccc(/C=N/Nc2cc(C)c3cccc(C)c3n2)s1` and `Fc1ccc2c(c1)nc1n2C(c2c(Cl)cccc2Cl)SC1` (configuration not stated) are within 1.5-fold of each other in TGI: 12.4 µM for the first, 18.3 µM for the second.

`O=C1C2SC34c5c2c2ccccc2n5CCC3CCCN14` (configuration not stated) and `O=C1/C(=C/c2ccc(Br)s2)NC(=S)N1c1ccccc1` cannot be ordered by TGI: over 100 µM for the first, over 100 µM for the second.

`CC(=O)Nc1sc(Br)cc1S(=O)(=O)c1ccc(Cl)cc1` and `COc1cccc(C(=O)Oc2ccc(OS(=O)(=O)c3ccc(C)cc3)cc2)c1C#N` cannot be ordered by TGI: over 100 µM for the first, over 100 µM for the second.

First: O=C1Sc2cc3ccccc3cc2C(=O)Sc2ccc(Br)cc21
Second: COC(=O)c1c(O)ccc2c1c1c(n2Cc2cc(OC)cc(OC)c2)C(=O)c2ccccc2C1
The TGI of the first is lower: 16.3 µM for the first, over 100 µM for the second.

Compared with `O=C(/C=C/c1ccccc1)Oc1cccc(O)c1`, `COC(=O)c1ccc(/C=C/c2cc(O)ccc2O)cc1` is 1.7-fold lower in TGI: 31.8 µM for the first, 18.9 µM for the second.

`O=C1c2ccccc2C(=O)c2c(NCC(O)CO)ccc(NCC(O)CO)c21` (configuration not stated) and `Cc1c(C)c2c(c(N)c1C#N)C(=O)N(NC(=O)c1ccccc1)C2=O` cannot be ordered by TGI: over 100 µM for the first, over 100 µM for the second.

`CC1(C)/C(=N\NC(N)=O)C2CCC1C2` (configuration not stated) and `NC(N)=NCCN1CC2CCC(CC2)C1` cannot be ordered by TGI: over 100 µM for the first, over 100 µM for the second.

`C/C=C/C(CC(O)(C(F)(F)F)C(F)(F)F)=N/NC(N)=S` and `O=C(N/N=C(\c1ccccc1)c1ccccn1)NC1CCCCC1` cannot be ordered by TGI: over 10 µM for the first, over 100 µM for the second.

Going from `CC(C)C1=CC23CCC4C(C)(C(=O)O)CCCC4(C)C2CC1C1C(=O)N(c2ccc(Cc4ccc(N5C(=O)C6C7CC8C9(C)CCCC(C)(C(=O)O)C9CCC8(C=C7C(C)C)C6C5=O)cc4)cc2)C(=O)C13` (configuration not stated) to `O=C(Nc1ccccc1)c1cc(S(=O)(=O)NC2=NC(c3ccccc3)c3cc(Cl)ccc3N2)c(SSc2cc(Cl)c(C(=O)Nc3ccccc3)cc2S(=O)(=O)NC2=NC(c3ccccc3)c3cc(Cl)ccc3N2)cc1Cl` (configuration not stated), the TGI rises from 19.1 µM to over 100 µM.

First: CCOC(=O)Nc1[nH]cc(-c2ccccc2)c1C#N
Second: C=CCc1cccc2cc(C(=O)NCc3ccccc3)c(=N)oc12
The TGI of the first is higher: over 100 µM for the first, 70.7 µM for the second.

`COc1ccc(C2SC(N)=Nc3c2c(C)nn3C(=O)c2ccncc2)cc1OC` (configuration not stated) and `COc1cc(Nc2nc3ccccc3nc2C(=O)O)cc(OC)c1OC` cannot be ordered by TGI: over 10 µM for the first, over 100 µM for the second.

With `O=C1Nc2cccc(Cl)c2/C1=C\c1c(Cl)nc2n1CCS2` the TGI was over 100 µM.
